Assay results: US20240327380A1, “BTK INHIBITORS” (BIOGEN MA INC., priority 2020, published 2024)
Read-outs that look alike come from different tables or passages of the source.

Assays:
[1] = molecular target: T1, active BTK enzyme (Upstate 14-552) (Homo sapiens, UniProt Q06187); test: In Vitro BTK Kinase Assay: Btk-PolyGAT-LS Assay; type: biochemical; details: ATP 10 μM, polyGAT 100 nM, BTK 0.25 nM, 30 minutes, TRF readout
T1 construct: purchased Upstate 14-552
Summary of the method: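 Active BTK (0.25 nM) phosphorylates fluorescein-polyGAT peptide (100 nM) with 10 µM ATP in Tris-HCl pH 7.5/MgCl2/DTT buffer, 30 min, EDTA stop. Phosphopeptide detected by TR-FRET with Tb-PY20 antibody after 45 min at room temperature; IC50 from four-parameter fit against DMSO and EDTA controls.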

[2] = system: CD69 expression on CD19+ B cells in human whole blood; test: In Vitro whole blood CD69 Assay; type: cell-based; details: B-cell
Experimental: In Vitro whole blood CD69 Assay
Human heparinized venous blood from health donors was aliquoted into 96-well plate and “spiked” with serial dilutions of formula I compounds in DMSO or with DMSO without drug. The final concentration of DMSO in all wells was 0.1%. The plate was incubated at 37° C. for 30 min. Drug-containing samples were stimulated with […] mouse anti-human IgD-dextran (1A62) or […] polyclonal rabbit F(ab′)2 anti-human IgD. Phosphate-buffered saline (PBS) was added to the negative control unstimulated sample and the plates were incubated overnight (18 to 22 hours) at 37° C. Cells were stained with fluorochrome-conjugated anti-CD19 and anti-CD69 antibodies. Lyse/fix solution was used to remove red blood cells by hypotonic lysis and to fix the remaining cells, which were then analyzed by flow cytometry. CD19+ B cells were gated and analyzed for CD69 expression. The percentage of B cells expressing CD69 was plotted versus the log 10 of the concentration of the drug and the best-fit curves (variable Hill slope) were generated to obtain the IC50 value.

[3] = human heparinized whole blood, anti-human IgD stimulation overnight, percentage of CD19+ B cells expressing CD69, flow cytometry, read-out: IC50

T1 sequence (Q06187 whole entry): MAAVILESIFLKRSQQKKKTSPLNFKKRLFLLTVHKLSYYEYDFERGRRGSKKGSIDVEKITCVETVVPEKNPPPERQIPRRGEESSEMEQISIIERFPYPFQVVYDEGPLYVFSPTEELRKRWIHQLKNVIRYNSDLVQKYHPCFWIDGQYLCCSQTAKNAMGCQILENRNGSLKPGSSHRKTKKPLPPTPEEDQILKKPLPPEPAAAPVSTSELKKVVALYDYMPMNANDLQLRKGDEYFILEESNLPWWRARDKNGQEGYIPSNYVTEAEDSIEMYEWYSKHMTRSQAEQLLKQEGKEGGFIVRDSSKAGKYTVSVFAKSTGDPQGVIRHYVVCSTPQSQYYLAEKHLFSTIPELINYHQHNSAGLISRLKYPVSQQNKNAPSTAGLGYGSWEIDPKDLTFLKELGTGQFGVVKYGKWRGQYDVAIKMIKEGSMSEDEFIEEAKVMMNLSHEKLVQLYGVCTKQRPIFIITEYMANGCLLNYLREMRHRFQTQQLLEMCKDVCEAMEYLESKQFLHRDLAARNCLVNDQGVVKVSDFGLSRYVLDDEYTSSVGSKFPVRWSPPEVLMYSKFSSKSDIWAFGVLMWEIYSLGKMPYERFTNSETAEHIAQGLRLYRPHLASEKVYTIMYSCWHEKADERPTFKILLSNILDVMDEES

| Structure (SMILES) | IC50 [1] [nM] | IC50 [2, 3] [nM] | IC50 ([2]; Homo sapiens) [nM] |
| --- | --- | --- | --- |
| C=CC(=O)N1CCC(c2cnccc2-c2ccc(CNC(=O)c3noc(C(C)(C)C)n3)c(C)c2)CC1 [Example 35, N-(4-(3-(1-acryloylpiperidin-4-yl)pyridin-4-yl)-2-methylbenzyl)-5-(tert-butyl)-1,2,4-oxadiazole-3-carboxamide] | 1 to 10 | 100 to 1000 |  |
| C=CC(=O)N1CCC(c2cnccc2-c2ccc(CNC(=O)c3nc(C(C)(C)C)no3)c(C)c2)CC1 [Example 36, N-(4-(3-(1-acryloylpiperidin-4-yl)pyridin-4-yl)-2-methylbenzyl)-3-(tert-butyl)-1,2,4-oxadiazole-5-carboxamide] | 1 to 10 | 100 to 1000 |  |
| C=CC(=O)N(C)C1CCCN(c2cnccc2-c2ccc(CNC(=O)c3coc(C(C)(C)C)n3)c(C)c2)C1 (stereo not drawn) [Example 37, 2-(tert-butyl)-N-(2-methyl-4-(3-(3-(N-methylacrylamido)piperidin-1-yl)pyridin-4-yl)benzyl)oxazole-4-carboxamide] | ≤ 1 | 100 to 1000 |  |
| C=CC(=O)N(C)C1CCCN(c2cnccc2-c2ccc(CNC(=O)c3nc(C(C)(C)C)co3)c(C)c2)C1 (stereo not drawn) [Example 39, 4-(tert-butyl)-N-(2-methyl-4-(3-(3-(N-methylacrylamido)piperidin-1-yl)pyridin-4-yl)benzyl)oxazole-2-carboxamide] | ≤ 1 |  | 100 to 1000 |
| C=CC(=O)N(C)C1CCCN(c2cnccc2-c2ccc(CNC(=O)c3ncn(C(C)(C)C)n3)c(C)c2)C1 (stereo not drawn) [Example 40, 1-(tert-butyl)-N-(2-methyl-4-(3-(3-(N-methylacrylamido)piperidin-1-yl)pyridin-4-yl)benzyl)-1H-1,2,4-triazole-3-carboxamide] | 1 to 10 | > 1000 |  |
| C=CC(=O)N(C)C1CCCN(c2cnccc2-c2ccc(CNC(=O)c3ccc(C(F)(F)F)nc3)c(C)c2)C1 (stereo not drawn) [Example 41, N-(2-methyl-4-(3-(3-(N-methylacrylamido)piperidin-1-yl)pyridin-4-yl)benzyl)-6-(trifluoromethyl)nicotinamide] | 1 to 10 | > 1000 |  |
| C=CC(=O)N(C)C1CCCN(c2cnccc2-c2ccc(CNC(=O)c3cnn(C(C)(C)C)c3)c(C)c2)C1 (stereo not drawn) [Example 42, 1-(tert-butyl)-N-(2-methyl-4-(3-(3-(N-methylacrylamido)piperidin-1-yl)pyridin-4-yl)benzyl)-1H-pyrazole-4-carboxamide] | ≤ 1 | 100 to 1000 |  |
| C=CC(=O)N(C)C1CCCN(c2cnccc2-c2ccc(CNC(=O)c3cn(C(C)(C)C)cn3)c(C)c2)C1 (stereo not drawn) [Example 43, 1-(tert-butyl)-N-(2-methyl-4-(3-(3-(N-methylacrylamido)piperidin-1-yl)pyridin-4-yl)benzyl)-1H-imidazole-4-carboxamide] | 1 to 10 | > 1000 |  |
| C=CC(=O)N(C)C1CCCN(c2cnccc2-c2ccc(CNC(=O)c3ccn(C(C)(C)C)n3)c(C)c2)C1 (stereo not drawn) [Example 44, 1-(tert-butyl)-N-(2-methyl-4-(3-(3-(N-methylacrylamido)piperidin-1-yl)pyridin-4-yl)benzyl)-1H-pyrazole-3-carboxamide] | 1 to 10 | > 1000 |  |
| C=CC(=O)N(C)C1CCCN(c2cnccc2-c2ccc(CNC(=O)c3cc(C(C)(C)C)no3)c(C)c2)C1 (stereo not drawn) [Example 46, 3-(tert-butyl)-N-(2-methyl-4-(3-(3-(N-methylacrylamido)piperidin-1-yl)pyridin-4-yl)benzyl)isoxazole-5-carboxamide] | ≤ 1 | 100 to 1000 |  |
| C=CC(=O)N1CCN(c2cnccc2-c2ccc(CNC(=O)c3cn(C(C)(C)C)nn3)c(C)c2)CC1 [Example 49, N-(4-(3-(4-acryloylpiperazin-1-yl)pyridin-4-yl)-2-methylbenzyl)-1-(tert-butyl)-1H-1,2,3-triazole-4-carboxamide] | ≤ 1 | 100 to 1000 |  |
| C=CC(=O)N(C)[C@@H]1CCCCN(c2cnccc2-c2ccc(CNC(=O)c3cn(C(C)(C)C)nn3)c(C)c2)C1 [Example 51, (R)-1-(tert-butyl)-N-(2-methyl-4-(3-(3-(N-methylacrylamido)azepan-1-yl)pyridin-4-yl)benzyl)-1H-1,2,3-triazole-4-carboxamide] | ≤ 1 | > 1000 |  |
| C=CC(=O)N(C)C1COCCN(c2cnccc2-c2ccc(CNC(=O)c3cn(C(C)(C)C)nn3)c(C)c2)C1 (stereo not drawn) [Example 52, 1-(tert-butyl)-N-(2-methyl-4-(3-(6-(N-methylacrylamido)-1,4-oxazepan-4-yl)pyridin-4-yl)benzyl)-1H-1,2,3-triazole-4-carboxamide] | 1 to 10 | 100 to 1000 |  |
| C=CC(=O)N(C)[C@@H]1CCCN(c2cncc(F)c2-c2ccc(CNC(=O)c3cn(C(C)(C)C)nn3)c(C)c2)C1 [Example 56, 1-tert-butyl-N-[[4-[3-fluoro-5-[(3R)-3-[methyl(prop-2-enoyl)amino]-1-piperidyl]-4-pyridyl]-2-methyl-phenyl]methyl]triazole-4-carboxamide] | ≤ 1 | 100 to 1000 |  |
| Cc1cc(-c2ccncc2N2CCN(C(=O)/C=C/CN(C)C)CC2)ccc1CNC(=O)c1noc(C(C)(C)C)n1 [Example 61, (E)-5-(tert-butyl)-N-(4-(3-(4-(4-(dimethylamino)but-2-enoyl)piperazin-1-yl)pyridin-4-yl)-2-methylbenzyl)-1,2,4-oxadiazole-3-carboxamide] | ≤ 1 | < 100 |  |
| C=CC(=O)N1CCN(c2cnccc2-c2ccc(CNC(=O)c3noc(C(C)(C)C)n3)c(C)c2)CC1 [Example 63, N-(4-(3-(4-acryloylpiperazin-1-yl)pyridin-4-yl)-2-methylbenzyl)-5-(tert-butyl)-1,2,4-oxadiazole-3-carboxamide] | ≤ 1 | 100 to 1000 |  |
| Cc1cc(-c2c(C#N)cncc2N2CCN(C(=O)/C=C/CN(C)C)CC2)ccc1CNC(=O)c1noc(C(C)(C)C)n1 [Example 69, (E)-5-(tert-butyl)-N-(4-(3-cyano-5-(4-(4-(dimethylamino)but-2-enoyl)piperazin-1-yl)pyridin-4-yl)-2-methylbenzyl)-1,2,4-oxadiazole-3-carboxamide] | 1 to 10 | 100 to 1000 |  |
| Cc1cc(-c2ccncc2N2CCN(C(=O)/C=C/CN(C)C)CC2)ccc1CN(C)C(=O)c1noc(C(C)(C)C)n1 [Example 71, (E)-5-(tert-butyl)-N-(4-(3-(4-(4-(dimethylamino)but-2-enoyl)piperazin-1-yl)pyridin-4-yl)-2-methylbenzyl)-N-methyl-1,2,4-oxadiazole-3-carboxamide] | 1 to 10 | 100 to 1000 |  |
| Cc1cc(-c2ccncc2N2CCN(C(=O)/C=C/CN(C)C)CC2)ccc1CNC(=O)c1nc(C2(C)CC2)no1 [Example 73, (E)-N-(4-(3-(4-(4-(dimethylamino)but-2-enoyl)piperazin-1-yl)pyridin-4-yl)-2-methylbenzyl)-3-(1-methylcyclopropyl)-1,2,4-oxadiazole-5-carboxamide] | ≤ 1 | 100 to 1000 |  |
| Cc1cc(-c2ncncc2N2CCN(C(=O)/C=C/CN(C)C)CC2)ccc1CNC(=O)c1noc(C(C)(C)C)n1 [Example 82, (E)-5-(tert-butyl)-N-(4-(5-(4-(4-(dimethylamino)but-2-enoyl)piperazin-1-yl)pyrimidin-4-yl)-2-methylbenzyl)-1,2,4-oxadiazole-3-carboxamide] | ≤ 1 | < 100 |  |
| Cc1cc(-c2ncncc2N2CCN(C(=O)/C=C/CN(C)C)CC2)ccc1CNC(=O)c1nc(C2(C)CC2)no1 [Example 85, (E)-N-(4-(5-(4-(4-(dimethylamino)but-2-enoyl)piperazin-1-yl)pyrimidin-4-yl)-2-methylbenzyl)-3-(1-methylcyclopropyl)-1,2,4-oxadiazole-5-carboxamide] | ≤ 1 | < 100 |  |
| Cc1cc(-c2ccncc2N2CCN(C(=O)/C=C/CN(C)C)CC2)ccc1[C@@H](C)NC(=O)c1noc(C(C)(C)C)n1 [Example 86, (R,E)-5-(tert-butyl)-N-(1-(4-(3-(4-(4-(dimethylamino)but-2-enoyl)piperazin-1-yl)pyridin-4-yl)-2-methylphenyl)ethyl)-1,2,4-oxadiazole-3-carboxamide] | 1 to 10 | 100 to 1000 |  |
| CN(C)C/C=C/C(=O)N1CCN(c2cnccc2-c2ccc(CNC(=O)c3noc(C(C)(C)C)n3)c(C(F)(F)F)c2)CC1 [Example 90, (E)-5-(tert-butyl)-N-(4-(3-(4-(4-(dimethylamino)but-2-enoyl)piperazin-1-yl)pyridin-4-yl)-2-(trifluoromethyl)benzyl)-1,2,4-oxadiazole-3-carboxamide] | ≤ 1 | < 100 |  |
| Cc1cc(-c2ccncc2N2CCN(C(=O)/C=C/CN(C)C)CC2)ccc1CNC(=O)c1nc(C2(CF)CC2)no1 [Example 94, (E)-N-(4-(3-(4-(4-(dimethylamino)but-2-enoyl)piperazin-1-yl)pyridin-4-yl)-2-methylbenzyl)-3-(1-(fluoromethyl)cyclopropyl)-1,2,4-oxadiazole-5-carboxamide] | ≤ 1 | 100 to 1000 |  |
